Publication PMC10447463, “Data-mining unveils structure–property–activity correlation of viral infectivity enhancing self-assembling peptides” (Nature Communications, 2023)
Like-named read-outs stand apart in the source and are kept apart here.

Experiments:
[1] = format: physicochemical; parameters: key to Fibril / Fibril Formation / TEM 2cat / Fibril: 1 = fibrils present; 0 non-fibrillar structures; conditions: for Fibril / Fibril Formation: 1 mg/mL, uranyl acetate stain, qualitative
[2] = format: physicochemical; conditions: for ThT Cat. / ThT-Fluorescence (categorical): ThT-active if fluorescence at least twice the control
Procedure, shortened: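 Preformed peptide fibrils (1 mg/mL) mixed with 50 µM ThT in PBS, 15 min at RT, fluorescence ex 440/em 488 nm versus PBS blank, triplicates. Zeta potential: peptides at 1 mg/mL in PBS pH 7.4, aged 1 d at RT, diluted in 1 mM KCl, Smoluchowski from electrophoretic mobility.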

[3] = β-sheet content by ATR-FT-IR; format: physicochemical; conditions: for b -sheet / %: Fig. S7 panel A, β-sheet content by ATR-FT-IR
Procedure, shortened: (§1)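 Fluorescamine labelling (20 min RT, λex 365/λem 470 nm) of 3 kDa-MWCO filtrate and unfiltered fibril samples, redissolved in DMSO, gave conversion rate as 100 minus the percentage filtrate/original intensity, in triplicate. Secondary structure was quantified by ATR FT-IR on lyophilized 1 mg/mL fibrils, 64 scans.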

[4] = Conversion rate (CR) assay with fluorescamine; format: physicochemical; parameters: key to CR: % = 100−100×filtrate/original fluorescence intensity
Procedure, shortened: as §1

[5] = FigS12 panel A, fibril category by TEM
[6] = TEM, 1 = fibrils present, 0 = non-fibrillar
[7] = TEM, 1 = fibrils present, 0 = non-fibrillar structures
[8] = ThT fluorescence category, 1 if Rel. ThT >2
[9] = Fig. S7 panel B, conversion rate, fluorescamine assay
[10] = conversion rate, fluorescamine assay
[11] = category: fibrils present or non-fibrillar

Row | Substance | TEM 2cat ([1]; Fig S10 panel D) | Fibril ([1]; Fig S10 panel E) | TEM 2cat [1, 5] | Fibril ([1]; FigS12 panel B, TEM) | Fibril / Fibril Formation ([1]; TEM) | Fibril [1, 6] | Fibril [1, 7] | Tht category (> 2 to blank = +) ([2]; Fig S10 panel D) | ThT Cat. ([2]; Fig S10 panel E) | Tht category (> 2 to blank = +) ([2]; FigS12 panel A) | ThT Cat, ([2]; FigS12 panel B) | ThT Cat, ([2]; ThT category, 1 if Rel. ThT >2) | ThT Cat. [2, 8] | ThT Cat. / ThT-Fluorescence (categorical) [2] | b -sheet / % [3] [%] | CR / % [4, 9] [%] | CR [4, 10] | ThT Cat. ([2]; ThT category, 1 if Rel. ThT >2) | TEM 2cat [1, 11] | further results
1 | KAKAQA | 0 | 0 | 0 | 0 | 0 | 0 | 0 | 0 (ThT-inactive (N-Fold <2)) | 0 (ThT-inactive (N-Fold <2)) | 0 (ThT-inactive (N-Fold <2)) | 0 (ThT-inactive (N-Fold <2)) | 0 (ThT-inactive (N-Fold <2)) | 0 (ThT-inactive (N-Fold <2)) | 0 (ThT-inactive (N-Fold <2)) | 40.34 | 0.3 | 0.3138 |  |  | 
2 | KAKAQANMWQ | 0 | 0 | 0 | 0 | 0 | 0 | 0 | 0 (ThT-inactive (N-Fold <2)) | 0 (ThT-inactive (N-Fold <2)) | 0 (ThT-inactive (N-Fold <2)) | 0 (ThT-inactive (N-Fold <2)) | 0 (ThT-inactive (N-Fold <2)) |  | 0 (ThT-inactive (N-Fold <2)) | 42.81 | 56.2 | 56.24 | 0 (ThT-inactive (N-Fold <2)) |  | Rel. ThT ([2]; n-fold ThT fluorescence vs control (PBS, 10% DMSO), 4 µL 1 mg/mL fibrils + 20 µL 50 µM ThT, 15 min RT, ex 440 / em 488 nm, triplicate): 1; ß-sheet / % ([3]; ATR-FT-IR of lyophilised 1 mg/mL PNF solution, peak integral ratio 1625-1635 cm-1, measured once): 43%; CR / % ([4]; conversion of monomer to nanostructures, 3 kDa MWCO filtration, fluorescamine, ex 365 / em 470 nm, triplicate): 56%
3 | KFKFQF | 0 | 0 | 0 | 0 | 0 | 0 | 0 | 0 (ThT-inactive (N-Fold <2)) | 0 (ThT-inactive (N-Fold <2)) | 0 (ThT-inactive (N-Fold <2)) | 0 (ThT-inactive (N-Fold <2)) | 0 (ThT-inactive (N-Fold <2)) | 0 (ThT-inactive (N-Fold <2)) | 0 (ThT-inactive (N-Fold <2)) | 46 | 67.4 | 67.4 |  |  | 
4 | KFKFQFNMWQ | 1 | 1 |  |  | 1 | 1 | 1 | 1 (ThT. Cat is 1, if Rel. ThT >2) | 1 (ThT. Cat is 1, if Rel. ThT >2) |  |  | 1 (ThT. Cat is 1, if Rel. ThT >2) |  | 1 (ThT. Cat is 1, if Rel. ThT >2) | 43.15 | 96.2 | 96.16 | 1 (ThT. Cat is 1, if Rel. ThT >2) | 1 | 
5 | KIKIQI | 0 | 0 | 0 | 0 | 0 | 0 | 0 | 0 (ThT-inactive (N-Fold <2)) | 0 (ThT-inactive (N-Fold <2)) | 0 (ThT-inactive (N-Fold <2)) | 0 (ThT-inactive (N-Fold <2)) | 0 (ThT-inactive (N-Fold <2)) | 0 (ThT-inactive (N-Fold <2)) | 0 (ThT-inactive (N-Fold <2)) | 38.6 | 18.9 | 18.91 |  |  | 
6 | KIKIQINM | 1 | 1 |  |  | 1 | 1 | 1 | 0 (ThT-inactive (N-Fold <2)) | 0 (ThT-inactive (N-Fold <2)) |  |  | 0 (ThT-inactive (N-Fold <2)) | 0 (ThT-inactive (N-Fold <2)) | 0 (ThT-inactive (N-Fold <2)) | 41 | 64 | 64 |  | 1 | 
7 | KIKIQINMWQ | 1 | 1 |  |  | 1 | 1 | 1 | 1 (ThT. Cat is 1, if Rel. ThT >2) | 1 (ThT. Cat is 1, if Rel. ThT >2) |  |  | 1 (ThT. Cat is 1, if Rel. ThT >2) |  | 1 (ThT. Cat is 1, if Rel. ThT >2) | 42.41 | 94.3 | 94.34 | 1 (ThT. Cat is 1, if Rel. ThT >2) | 1 | 
8 | KIKQIINM | 1 | 1 |  |  | 1 | 1 | 1 | 0 (ThT-inactive (N-Fold <2)) | 0 (ThT-inactive (N-Fold <2)) |  |  | 0 (ThT-inactive (N-Fold <2)) | 0 (ThT-inactive (N-Fold <2)) | 0 (ThT-inactive (N-Fold <2)) | 44 | 43 | 43 |  | 1 | 
9 | KIKQIINMWQ | 1 | 1 |  |  | 1 | 1 | 1 | 1 (ThT. Cat is 1, if Rel. ThT >2) | 1 (ThT. Cat is 1, if Rel. ThT >2) |  |  | 1 (ThT. Cat is 1, if Rel. ThT >2) |  | 1 (ThT. Cat is 1, if Rel. ThT >2) | 40.68 | 90.1 | 90.09 | 1 (ThT. Cat is 1, if Rel. ThT >2) | 1 | 
10 | KNERIKNERI | 0 | 0 | 0 | 0 | 0 | 0 | 0 | 0 (ThT-inactive (N-Fold <2)) | 0 (ThT-inactive (N-Fold <2)) | 0 (ThT-inactive (N-Fold <2)) | 0 (ThT-inactive (N-Fold <2)) | 0 (ThT-inactive (N-Fold <2)) |  | 0 (ThT-inactive (N-Fold <2)) | 37.95 | 54.4 | 54.36 | 0 (ThT-inactive (N-Fold <2)) |  | 
